Assays:
Assay type in all cases: in vivo, rat
[1] = tested on: acetyl-CoA carboxylase (ACC); test: Acetyl-CoA carboxylase activity at 0.2 mM citrate in muscle after s.c. AICAR injection; settings: for ACC: at 0.2 mM citrate
Method: Three days prior to the experiment, jugular cathethers were installed and exteriorized on the back of the neck to allow rapid anesthesia of the rat and rapid blood and tissue collection. Rats were then injected with AICAR (1 mg/g body wt) subcutaneously in sterile 0.9% NaCl or were given 0.9% NaCl (n=6 rats per group). One hour after the subcutaneous injection, rats were anesthetized by intravenous injection of pentobarbital sodium (4.8 mg/100 g body wt). The superficial white and the deep red regions of the quadriceps muscles, and the soleus muscles were quickly removed and frozen with stainless steel clamps at liquid nitrogen temperature.
Resuspended ammonium sulfate precipitates of tissue homogenates were analyzed for AMPK activity and acetyl-CoA carboxylase activity as described previously. Li, B., et al. J. Biol. Chem. 274:17534-17540, 1999; Winder, W. W., & D. G. Hardie Am. J. Physiol. 270:E299-E304, 1996. […] ACC activity at 0.2 mM citrate provides some indication of the in vivo activity of AMPK, since ACC is a target for phosphorylation of AMPK. ACC activity has previously been reported to decrease in response to phosphorylation by AMPK. Winder, W. W., & D. G. Hardie Am. J. Physiol. 270:E299-E304, 1996. The acute experiment was also repeated on rats treated with AICAR or saline for 4 weeks to see if the responses of AMPK and ACC to AICAR persisted for the entire treatment period. In both experiments ATP and CP were measured on neutralized perchloric acid extracts of muscle.

[2] = tested on: citrate synthase; test: Muscle citrate synthase activity after chronic or intermittent AICAR injection; settings: for citrate synthase activity vs saline-injected controls: AICAR 4 weeks, FIG. 3
Method: (§1) To determine the effect of chronic injection of AICAR on muscle enyzme activities or expression and on muscle GLUT4, rats were injected subcutaneously (between 8 and 10 a.m.) with AICAR (1 mg/g) or saline vehicle daily for 28±1 days in succession. Beginning with the first injection, controls were pair fed with AICAR-injected rats. Rats were anesthetized by intraperitoneal injection of pentobarbital sodium 22-25 hours after the last AICAR injection and the white and red regions of the quadriceps and the soleus muscles were removed and frozen as described above. Muscles were kept frozen at −70° C. until analyzed. Liver, heart, kidney, and fat pads were weighed.
After obtaining results on blunted acute response to an AICAR injection on AMPK in chronically treated rats, an additional experiment was done to determine if intermittent treatment of rats with AICAR would influence the extent of the increase in citrate synthase. This experiment was also of shorter duration to minimize down regulation that appeared to occur with prolonged treatment. Rats were injected for three days (1 mg/g) followed by two days of no treatment. They were then injected for five days, followed by another two days with no treatment and then for three additional days before killing 20-24 hours following the last injection. Rats were anesthetized and tissues were collected and frozen as before. Analytical methods. Muscles from rats killed 1 h after injection of AICAR or saline were analyzed for AMPK, acetyl-CoA carboxylase (ACC) at 0.2 mM citrate, ATP and CP and ZMP. Li, B., et al. J. Biol. Chem. 274:17534-17540, 1999; Winder, W. W., & D. G. Hardie Am. J. Physiol. 270:E299-E304, 1996; Heinz, F., & H. Weisser. Creatine phosphate. In: Methods of Enzymatic Analysis, edited by H. U. Bergmeyer. New York: Academic, 1983, p. 507-514.
For enzyme activity measurements, 10% homogenates were made from the respective muscles in 175 mM KCl, 10 mM GSH, 2 mM EDTA, pH 7.4. This homogenate was frozen and thawed 3 times and mixed thoroughly prior to enzymatic measurements. For succinate dehydrogenase and lactate dehydrogenase, an aliquot of the homogenate was centrifuged at 700×g for 10 min at 4° C. The remainder of the assays were performed on aliquots and dilutions of the mixed whole homogenate. Assays were performed by the following methods: citrate synthase, succinate dehydrogenase, the mitochondrial fraction of malate dehydrogenase, hexokinase, lactate dehydrogenase, carnitine palmitoyl transferase and hydroxyacyl-CoA dehydrogenase. Srere, P. A. Methods in Enzymology 13:3-6, 1969; King, T. E. Methods Enzymol 10:322-335, 1967; Shonk, C. E. & G. E. Boxer, Cancer Res. 24:709-721, 1964; Uyeda, K., & E. Racker, J. Biol Chem 240:4682-4688, 1965; Pesce, A., et al. J. Biol. Chem. 239:1753-1761, 1964; Baldwin, K. M., et al. Am. J. Physiol 222:373-378, 1972; Mole, P. A., et al. J. Clin. Invest. 50:2323-2330, 1971; Kobayashi, A. et al. J. Biochem. 119:775-782, 1996.

[3] = tested on: cytochrome c; test: Muscle cytochrome c protein by western blot after chronic AICAR injection; settings: AICAR 4 weeks, FIG. 2
Method: as §1
For the chronic effects of AICAR injection muscles were analyzed for glycogen GLUT-4, hexokinase, lactate dehydrogenase, and several mitochondrial enzymes. Hassid, W. Z., & S. Abraham Methods Enzymol. 3:35-36, 1957. GLUT4 was quantitated by western blotting as described previously using GLUT4 polyclonal antibody RaIRGT, Biogenesis, Sandown, N.H.) and horseradish peroxidase-conjugated donkey anti-rabbit IgG (Amersham Life Science, Arlington Heights, Ill.). Holmes, B. F., et al. J. Appl Physiol 87:1990-1995, 1999. δ-Aminolevulinic acid synthase was determined using western blotting techniques as described previously. Li, B., et al. J. Biol. Chem. 274:17534-17540, 1999. […] Protein bands were quantified by densitometry.

[4] = AICAR-injected rats, single injection, 0.2 mM citrate

For `NC(=O)c1ncn([C@@H]2O[C@H](CO)[C@@H](O)[C@H]2O)c1N` [AICAR, 5-aminoimidazole-4-carboxamide-1-β-D-ribofuranoside], the “ACC activity in white quadriceps relative to that seen in red quadriceps” value [1, 4] was 61%, the “ACC activity in white quadriceps relative to that seen in soleus” value [1, 4] was 44% and the ACC ([1]; red quadriceps, 60 min after AICAR injection, after daily injections for 4 wk) was 0.21 ± 0.01 nmol/g/min. The ACC ([1]; red quadriceps, 60 min after single AICAR injection 1 mg/g s.c., no chronic treatment) was 0.19 ± 0.02 nmol/g/min, the ACC ([1]; soleus, 60 min after AICAR injection, after daily injections for 4 wk) was 0.28 ± 0.01 nmol/g/min and the ACC ([1]; soleus, 60 min after single AICAR injection 1 mg/g s.c., no chronic treatment) was 0.19 ± 0.02 nmol/g/min. The ACC ([1]; white quadriceps, 60 min after AICAR injection, after daily injections for 4 wk) was 0.12 ± 0.01 nmol/g/min, the ACC ([1]; white quadriceps, 60 min after single AICAR injection 1 mg/g s.c., no chronic treatment) was 0.08 ± 0.02 nmol/g/min and the “citrate synthase activity vs saline-injected controls” value ([2]; red quadriceps) was “not in red quadriceps”. For the same molecule, the citrate synthase ([2]; red region of the quadriceps, intermittent AICAR injections 1 mg/g) was 57.4 ± 2.5 µmol/g/min, the “citrate synthase activity vs saline-injected controls” value ([2]; soleus) was “significantly increased” and the “citrate synthase activity vs saline-injected controls” value ([2]; white quadriceps) was “significantly increased”. The “citrate synthase increase vs controls” value ([2]; white quadriceps, intermittent AICAR injections) was 48%, the citrate synthase ([2]; white quadriceps, intermittent AICAR injections 1 mg/g (3 days on, 2 off, 5 on, 2 off, 3 on)) was 23.0 ± 1.2 µmol/g/min and the “cytochrome c protein vs saline controls” value ([3]; red quadriceps) was “not in red quadriceps”. The “cytochrome c protein vs saline controls” value ([3]; white quadriceps) was “also increased”.
